Test results reported in ChEMBL document CHEMBL1140846, “Convenient QSAR model for predicting the complexation of structurally diverse compounds with beta-cyclodextrins” (Bioorg Med Chem, 2009).

Assay: Binding affinity to beta cyclodextrin

Compared with COc1cccc(O)c1 [1-hydroxy-3-methoxybenzene], Oc1cccc(I)c1 is higher in “log Ks” value: 2.11 for the first, 2.93 for the second.

Ic1ccc(I)cc1 and CC(=O)Oc1ccc(I)cc1 are within 0.2 log units of each other in “log Ks” value: 3.17 for the first, 3 for the second.

Going from O=Cc1ccccc1 [BENZALDEHYDE] to O=[N+]([O-])c1ccccc1 [NITROBENZENE], the “log Ks” value rises from 1.78 to 2.04.

CC(C)Cc1cccc(O)c1 and CCC(C)c1cccc(O)c1 (centres undefined) are within 0.2 log units of each other in “log Ks” value: 4.21 for the first, 4.06 for the second.

Going from CCCCNC(=O)NS(=O)(=O)c1ccc(N)cc1 [CARBUTAMIDE] to Cc1ccnc(NS(=O)(=O)c2ccc(N)cc2)n1 [SULFAMERAZINE], the “log Ks” value falls from 2.29 to 1.97.

CC(=O)OCC(=O)[C@@]1(O)CC[C@H]2[C@@H]3CCC4=CC(=O)CC[C@]4(C)[C@H]3C(=O)C[C@@]21C [CORTISONE ACETATE] and CC(=O)OCC(=O)[C@@]1(O)CC[C@H]2[C@@H]3CCC4=CC(=O)C=C[C@]4(C)[C@H]3[C@@H](O)C[C@@]21C [PREDNISOLONE ACETATE] are within 0.2 log units of each other in “log Ks” value: 3.62 for the first, 3.76 for the second.

First: CC(C)Oc1ccc(O)cc1
Second: CC(C)c1ccc(O)cc1
The “log Ks” value of the first is lower: 2.86 for the first, 3.58 for the second.

Compared with CCC1(CC)C(=O)NC(=O)NC1=O [BARBITAL], CCCC(C)C1(CC)C(=O)NC(=O)NC1=O (centres undefined) [PENTOBARBITAL] is higher in “log Ks” value: 1.78 for the first, 3.01 for the second.

OCCCCO [1,4-BUTANEDIOL] and OCCCO [1,3-PROPANEDIOL] are within 0.2 log units of each other in “log Ks” value: 0.64 for the first, 0.67 for the second.

First: CCOC(=O)c1ccccc1 [ETHYL BENZOATE]
Second: O=C(O)c1ccccc1 [BENZOIC ACID]
The “log Ks” value of the first is higher: 2.73 for the first, 2.12 for the second.

First: CCCc1ccc(OC(C)=O)cc1
Second: CC(=O)Oc1ccc(Cl)cc1
The “log Ks” value of the first is higher: 3.15 for the first, 2.5 for the second.

First: CC(=O)Oc1cccc(Cl)c1
Second: CC(=O)Oc1cccc(F)c1
The “log Ks” value of the first is higher: 2.44 for the first, 1.91 for the second.

First: CCCOC/C(=N\c1ccc(Cl)cc1C(F)(F)F)n1ccnc1 [TRIFLUMIZOLE]
Second: CN1C(=O)CN=C(c2ccccc2F)c2cc(Cl)ccc21 [FLUDIAZEPAM]
The “log Ks” value of the first is higher: 2.66 for the first, 2.33 for the second.

Compared with CC(C(=O)O)c1cccc(C(=O)c2ccccc2)c1 (centres undefined) [KETOPROFEN], CC(C(=O)O)c1ccc(-c2ccccc2)c(F)c1 (centres undefined) [FLURBIPROFEN] is higher in “log Ks” value: 2.85 for the first, 3.69 for the second.

Compared with OCc1ccc(O)cc1 [PARAHYDROXYBENZYL ALCOHOL], CCCCc1ccc(O)cc1 is higher in “log Ks” value: 2.16 for the first, 3.97 for the second.

OCCc1ccccc1 [PHENYLETHYL ALCOHOL] and OC[C@H](O)COCc1ccccc1 are within 0.2 log units of each other in “log Ks” value: 2.15 for the first, 2.11 for the second.

Compared with CO [METHYL ALCOHOL], CC(C)CCO [3-METHYLBUTANOL] is higher in “log Ks” value: -0.49 for the first, 2.25 for the second.

Compared with CC(=O)c1ccc(S(=O)(=O)NC(=O)NC2CCCCC2)cc1 [ACETOHEXAMIDE], Cc1noc(NS(=O)(=O)c2ccc(N)cc2)c1C [SULFISOXAZOLE] is lower in “log Ks” value: 2.94 for the first, 2.32 for the second.

Going from C[C@H](CCC(=O)O)[C@H]1CC[C@H]2[C@@H]3[C@H](O)C[C@@H]4C[C@H](O)CC[C@]4(C)[C@H]3CC[C@]12C [CHENODIOL] to C[C@H](CCC(=O)O)[C@H]1CC[C@H]2[C@@H]3[C@H](O)C[C@@H]4C[C@H](O)CC[C@]4(C)[C@H]3C[C@H](O)[C@]12C [CHOLIC ACID], the “log Ks” value falls from 4.36 to 3.5.

Compared with CC(=O)Oc1cccc(C(C)C)c1, CCOc1cccc(OC(C)=O)c1 is lower in “log Ks” value: 3.36 for the first, 2.49 for the second.

First: CCCCC[C@H](O)/C=C/[C@H]1[C@H](O)CC(=O)[C@@H]1C/C=C\CCCC(=O)O [DINOPROSTONE]
Second: C[C@H](CCC(=O)O)[C@H]1CC[C@H]2[C@@H]3C(=O)C[C@@H]4CC(=O)CC[C@]4(C)[C@H]3CC(=O)[C@]12C [DEHYDROCHOLIC ACID]
The “log Ks” value of the first is lower: 3.09 for the first, 3.38 for the second.

C[C@H]1C[C@H]2[C@@H]3CCC4=CC(=O)C=C[C@]4(C)[C@@]3(F)[C@@H](O)C[C@]2(C)[C@@]1(O)C(=O)CO [BETAMETHASONE] and C[C@@H]1C[C@H]2[C@@H]3CCC4=CC(=O)C=C[C@]4(C)[C@@]3(F)[C@@H](O)C[C@]2(C)[C@@]1(O)C(=O)CO [DEXAMETHASONE] are within 0.2 log units of each other in “log Ks” value: 3.73 for the first, 3.65 for the second.

Compared with CC(=O)c1cccc(O)c1, CCC(=O)c1ccc(O)cc1 [PAROXYPROPIONE] is higher in “log Ks” value: 2.06 for the first, 2.63 for the second.

CCCCC(C)O (centres undefined) [2-HEXANOL] and CCCCCO [1-PENTANOL] are within 0.2 log units of each other in “log Ks” value: 1.98 for the first, 1.8 for the second.

Compared with OC1CCCCCC1 [CYCLOHEPTANOL], OC1CCCC1 [CYCLOPENTANOL] is lower in “log Ks” value: 3.23 for the first, 2.08 for the second.

Compared with COc1cc(NS(=O)(=O)c2ccc(N)cc2)nc(OC)n1 [SULFADIMETHOXINE], CN1C(=O)CN=C(c2ccccc2)c2cc([N+](=O)[O-])ccc21 [NIMETAZEPAM] is lower in “log Ks” value: 2.26 for the first, 1.73 for the second.

First: C=CCC1(CC=C)C(=O)NC(=O)NC1=O [ALLOBARBITAL]
Second: CCCC(=O)O[C@]1(C(=O)CO)CC[C@H]2[C@@H]3CCC4=CC(=O)CC[C@]4(C)[C@H]3[C@@H](O)C[C@@]21C [HYDROCORTISONE BUTYRATE]
The “log Ks” value of the first is lower: 1.98 for the first, 3.23 for the second.

First: OCCO [ETHYLENE GLYCOL]
Second: CCC(O)CC [3-PENTANOL]
The “log Ks” value of the first is lower: -0.19 for the first, 1.35 for the second.

Oc1cc(Br)cc(Br)c1 and Cc1cccc(Nc2ccccc2C(=O)O)c1C [MEFENAMIC ACID] are within 0.2 log units of each other in “log Ks” value: 2.56 for the first, 2.49 for the second.

Compared with C[C@]12C=CC(=O)C=C1CC[C@H]1[C@@H]3C[C@@H](O)[C@](O)(C(=O)CO)[C@@]3(C)C[C@H](O)[C@@]12F [TRIAMCINOLONE], O=C(O)CC12CC3CC(CC(C3)C1)C2 is higher in “log Ks” value: 3.37 for the first, 4.32 for the second.

CN(C)c1ccccc1 and CCNc1ccccc1 are within 0.2 log units of each other in “log Ks” value: 2.36 for the first, 2.34 for the second.

First: Cc1ccc(Cl)c(Nc2ccccc2C(=O)O)c1Cl [MECLOFENAMIC ACID]
Second: ClC(Cl)(Cl)Cl [CARBON TETRACHLORIDE]
The “log Ks” value of the first is higher: 2.67 for the first, 2.2 for the second.
